# Several values for one entry are separate records, joined by “and”; a condition that tells them apart may be missing. Equal entries are not always repeated. Where two headings read alike, the source gives them in different places.
# How the values were obtained:
# [1] = CellTiter-Glo cell viability assay; format: cell-based, murine; conditions: mouse; for viability at 3 days, 5 µM: 5000 nM
# parental Ba/F3 cells = assay: CellTiter-Glo cell viability assay; format: cell-based, murine; conditions: for cell viability: CTG, parental
# [2] = system: pAkt^S473 and downstream targets in Ba/F3 myr-Akt1; conditions: Ba/F3 myr-Akt1, 4-h treatment
# Ba/F3^myr-Akt1 cells = assay: CellTiter-Glo cell viability assay; conditions: for viability at 0.0001 µM: read-out: cell viability, CTG, myr-Akt1, 0.1 nM, single replicates; for viability at 5 µM: read-out: cell viability, CTG, myr-Akt1, 5000 nM, single replicates; for Log ratio EC50 [Akt] / EC50 [Akt], Akt1 / Akt2: cell viability assay Ba/F3 myr-Akt cells, log units
# Description: (§1) On day 0, cells were plated into white 384-well cell culture plates (Greiner Bio-One) using a Multidrop reagent dispenser (Thermo Fisher Scientific) at cell numbers that ensure linear and optimal luminescent signal intensity (Ba/F3myr-Akt1: 600 cells/well, Ba/F3myr-Akt2: 800 cells/well, Ba/F3myr-Akt3: 800 cells/well). […] Cell viability was analyzed on day 4 using the CellTiter-Glo Assay (Promega) as per the manufacturer’s instructions. […] All experimental points were measured in duplicates for each plate and were replicated in at least three plates.
# Ba/F3^myr-Akt2 cells = assay: CellTiter-Glo cell viability assay
# Description: as §1
# Ba/F3^myr-Akt3 cells = assay: CellTiter-Glo cell viability assay; conditions: for viability at 5 µM: read-out: cell viability, CTG, myr-Akt3, 5000 nM, single replicates; for Log ratio EC50 [Akt] / EC50 [Akt], Akt3 / Akt2: cell viability assay Ba/F3 myr-Akt cells, log units
# Description: as §1
# Akt1 [3] = biological target: Akt1 (Homo sapiens, UniProt P31749); assay: STK HTRF KinEASE activity-based assay (IC50); conditions: for Log ratio IC50 [Akt] / IC50 [Akt], Akt1 / Akt2: biochemical activity based assay, log units
# Sequence of Akt1 (Homo sapiens, UniProt P31749) (P31749 whole entry): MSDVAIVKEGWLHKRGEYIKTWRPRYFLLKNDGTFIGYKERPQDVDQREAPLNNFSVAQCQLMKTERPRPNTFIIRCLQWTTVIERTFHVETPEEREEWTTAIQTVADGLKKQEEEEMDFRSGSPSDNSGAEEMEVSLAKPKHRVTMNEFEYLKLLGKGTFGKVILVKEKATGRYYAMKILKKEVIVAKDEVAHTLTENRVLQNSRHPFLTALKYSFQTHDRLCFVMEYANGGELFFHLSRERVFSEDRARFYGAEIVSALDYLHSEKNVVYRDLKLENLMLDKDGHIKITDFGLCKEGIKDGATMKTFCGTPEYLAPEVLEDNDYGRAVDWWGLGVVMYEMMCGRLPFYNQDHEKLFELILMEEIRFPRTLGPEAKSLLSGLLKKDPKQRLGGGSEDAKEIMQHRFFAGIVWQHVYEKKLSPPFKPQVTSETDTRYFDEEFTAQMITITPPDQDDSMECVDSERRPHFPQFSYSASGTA
# [4] = system: pAkt^S473 and downstream targets in Ba/F3 myr-Akt3; assay: Western blot analysis, Ba/F3 myr-Akt3 cells; format: cell-based, murine; conditions: Ba/F3 myr-Akt3, 4-h treatment
# Description: Cells were seeded into six-well tissue culture plates (Sarstedt) (BaF3 myr-Akt1/2/3: 10^6 cells/well, PANC1: 250.000 cells/well). After 24 h incubation, cells were treated with various concentrations of inhibitors or DMSO and incubated for additional 4.5 h before cells were washed twice with ice-cold PBS. Cell lysis was initiated by addition of 100 μL RIPA buffer (Cell Signaling Technology) per well supplemented with phosphatase and protease inhibitor cocktails (Sigma) followed by incubation on ice for 20 min. Cells were then harvested by scraping (PANC1) or centrifugation (BaF3). Whole cell lysates were cleared by centrifugation at 14,000×g/4 °C for 10 min and transferred into fresh, pre-cooled microcentrifuge tubes. Protein concentrations were determined using the Pierce BCA protein assay (Thermo) as per manufacturer’s instructions. Equal amounts of protein were separated by SDS-PAGE and transferred to Immobilon-FL PVDF membranes (Merck Millipore) using Pierce™ 1-step transfer buffer (Thermo) and the Pierce™ Power Blotter (Thermo). Membranes were washed for 5 min with ddH2O, blocked with Intercept®Blocking Buffer TBS (Li-Cor) for 1 h at room temperature, and then incubated with primary antibodies diluted in Intercept®Blocking Buffer TBS overnight at 4 °C with gentle agitation. […]
# Akt1 [5] = biological target: T1, Akt1 (Homo sapiens, UniProt P31749, E114A/E115A/E116A); assay: ESI-MS/MS of tryptic digest (modified cysteine residues); format: binding; conditions: 5-fold molar excess of inhibitor
# T1 construct: AKT1(2–446, E114/115/116A); His6 with TEV protease recognition site (N, cleaved yes); made in house; host or cells: Spodoptera frugiperda (Sf9)
# T1 sequence (P31749 2-446 E114A/E115A/E116A): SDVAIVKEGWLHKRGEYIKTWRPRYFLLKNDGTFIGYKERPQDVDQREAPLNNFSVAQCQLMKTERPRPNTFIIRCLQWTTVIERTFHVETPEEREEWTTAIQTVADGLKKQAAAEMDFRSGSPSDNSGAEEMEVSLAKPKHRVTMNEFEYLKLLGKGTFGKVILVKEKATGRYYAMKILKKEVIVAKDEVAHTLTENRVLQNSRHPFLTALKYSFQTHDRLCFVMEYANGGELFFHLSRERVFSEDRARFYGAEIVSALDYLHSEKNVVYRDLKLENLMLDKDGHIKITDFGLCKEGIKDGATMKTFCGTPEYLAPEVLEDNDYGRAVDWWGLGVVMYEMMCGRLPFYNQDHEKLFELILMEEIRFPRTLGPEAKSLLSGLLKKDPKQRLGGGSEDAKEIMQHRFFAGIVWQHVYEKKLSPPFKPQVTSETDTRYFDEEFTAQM
# Description: ESI-MS/MS samples were prepared as stated above followed by steps of reduction, alkylation, and tryptic digest. The digested samples were stage tip-purified using C18 tips and according to a protocol described elsewhere. Subsequently, samples were thawed, dissolved in 20 μL of 0.1% TFA in water, sonicated at room temperature for 15 min, and centrifuged at 15,000×g for 1 min shortly before analysis. In all, 3 μL of sample were loaded onto a pre-column cartridge and desalted for 5 min using 0.1% TFA in water as eluent at a flow rate of 30 μL/min. The samples were back-flushed from the pre-column to the nano-HPLC column during the whole analysis. Elution was performed using a gradient starting at 5% B with a final composition of 30% B after 35 min (flow rate 300 nL/min) using 0.1% formic acid in water as eluent A and 0.1% formic acid in acetonitrile as eluent B and a column temperature of 40 °C. […] During the complete gradient cycle, a typical TOP10 shot-gun proteomics method for the MS and MS/MS analysis was used. For full scan MS experiments a mass range of m/z 300–1650 was scanned with a resolution of 70000. MS/MS experiments were followed by up to 10 high energy collision dissociation (HCD) MS/MS scans with a resolution of 17,500 of the most intense at least doubly charged ions. Data evaluation was performed using MaxQuant[50]. Spectra were searched against the specific Akt sequence and a contamination database using a false discovery rate of 1% on peptide and protein level using a decoy database for determination of the false discovery rate. For database search oxidation of methionine and N-terminal acetylation of proteins, carbamidomethylation of cysteines, and artificial modification of cysteines were defined as variable modifications.
# Akt2 = Akt2 (Homo sapiens, UniProt P31751); assay: STK HTRF KinEASE activity-based assay (IC50)
# Sequence of Akt2 (P31751 whole entry): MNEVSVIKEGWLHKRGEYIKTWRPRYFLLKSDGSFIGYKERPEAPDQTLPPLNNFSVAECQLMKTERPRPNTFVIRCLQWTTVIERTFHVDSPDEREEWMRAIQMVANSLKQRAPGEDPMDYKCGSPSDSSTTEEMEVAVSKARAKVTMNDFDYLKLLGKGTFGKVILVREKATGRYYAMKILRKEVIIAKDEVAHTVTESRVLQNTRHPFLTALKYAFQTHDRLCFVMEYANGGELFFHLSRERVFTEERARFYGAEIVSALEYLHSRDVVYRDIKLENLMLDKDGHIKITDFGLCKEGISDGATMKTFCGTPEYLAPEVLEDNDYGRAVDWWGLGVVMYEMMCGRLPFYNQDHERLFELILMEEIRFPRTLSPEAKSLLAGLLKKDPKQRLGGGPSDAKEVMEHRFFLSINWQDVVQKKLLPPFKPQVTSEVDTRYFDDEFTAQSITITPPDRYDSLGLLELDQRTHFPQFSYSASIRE
# Akt3 = Akt3 (Homo sapiens, UniProt Q9Y243); assay: STK HTRF KinEASE activity-based assay (IC50); conditions: IC50 Akt3, HTRF, ATP at KM, 1 h preincubation
# Sequence of Akt3 (Q9Y243 whole entry): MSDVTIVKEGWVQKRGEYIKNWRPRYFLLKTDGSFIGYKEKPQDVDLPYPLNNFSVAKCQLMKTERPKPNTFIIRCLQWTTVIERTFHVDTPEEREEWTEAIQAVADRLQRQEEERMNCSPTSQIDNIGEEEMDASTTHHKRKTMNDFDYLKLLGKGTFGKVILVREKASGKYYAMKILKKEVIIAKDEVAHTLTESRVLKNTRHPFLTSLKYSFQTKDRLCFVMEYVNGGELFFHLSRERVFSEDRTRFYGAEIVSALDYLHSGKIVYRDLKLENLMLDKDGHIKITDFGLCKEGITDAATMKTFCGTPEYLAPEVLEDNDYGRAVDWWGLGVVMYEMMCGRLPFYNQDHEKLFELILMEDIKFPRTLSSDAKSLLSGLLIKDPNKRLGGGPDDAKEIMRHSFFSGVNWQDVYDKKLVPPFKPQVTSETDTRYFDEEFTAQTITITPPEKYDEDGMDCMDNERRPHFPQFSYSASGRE
# [6] = Mus musculus, BaF3, CTG, parental BaF3 cell line, read-out: EC50 BaF3
# [7] = Mus musculus, BaF3, parental cells, mean of replicates, read-out: CTG BaF3, Mean
# [8] = Mus musculus, BaF3, parental cells, single replicates, read-out: CTG BaF3, individual determinations
# [9] = parental cells, single replicates, read-out: CTG BaF3, individual determinations
# [10] = Mus musculus, read-out: CTG BaF3myr-Akt1, Mean, mean of replicates
# [11] = Mus musculus, read-out: CTG BaF3myr-Akt1, individual determinations, single replicates
# [12] = read-out: CTG BaF3myr-Akt1, individual determinations, single replicates
# [13] = read-out: CTG BaF3myr-Akt2, individual determinations, single replicates
# [14] = Mus musculus, read-out: CTG BaF3myr-Akt3, individual determinations, single replicates
# [15] = read-out: CTG BaF3myr-Akt3, individual determinations, single replicates
# [16] = 0.1 nM, single replicates, 0.0001 µM
# [17] = 5000 nM, single replicates, 5 µM
# [18] = CTG, myr-Akt1, 0.1 nM, single replicates, 0.0001 µM
# [19] = CTG, myr-Akt1, 5000 nM, single replicates, 5 µM
# [20] = CTG, myr-Akt3, 0.1 nM, single replicates, 0.0001 µM
# [21] = CTG, myr-Akt3, 5000 nM, single replicates, 5 µM
# [22] = Mus musculus, read-out: CTG BaF3myr-Akt3, Mean, mean of replicates
SMILES,EC50 (parental Ba/F3 cells; [6]) [µM],EC50 (parental Ba/F3 cells; [7]) [µM],EC50 (parental Ba/F3 cells; [8]) [µM],EC50 (parental Ba/F3 cells; [9]),pAkt and downstream targets (immunoblot) [2],EC50 (Ba/F3^myr-Akt1 cells; [10]) [µM],EC50 (Ba/F3^myr-Akt1 cells; [11]) [µM],viability at 0.0001 µM (Ba/F3^myr-Akt1 cells; Mus musculus) [%],viability at 5 µM (Ba/F3^myr-Akt1 cells; Mus musculus) [%],"Log ratio EC50 [Akt] / EC50 [Akt], Akt1 / Akt2 (Ba/F3^myr-Akt1 cells)",EC50 (Ba/F3^myr-Akt1 cells; [12]),EC50 (Ba/F3^myr-Akt2 cells; [13]),EC50 (Ba/F3^myr-Akt3 cells; [14]) [µM],viability at 5 µM (Ba/F3^myr-Akt3 cells; Mus musculus) [%],"Log ratio EC50 [Akt] / EC50 [Akt], Akt3 / Akt2 (Ba/F3^myr-Akt3 cells)",EC50 (Ba/F3^myr-Akt3 cells; [15]),"Log ratio IC50 [Akt] / IC50 [Akt], Akt1 / Akt2 (Akt1 [3])",cell viability (parental Ba/F3 cells; [16]),cell viability (parental Ba/F3 cells; [17]),pAkt and downstream targets (immunoblot) [4],further results
"C=CC(=O)Nc1ccc2[nH]c(=O)n(C3CCN(Cc4ccc(-c5nc(C)c(=O)[nH]c5-c5ccccc5)cc4)CC3)c2c1 [15a, reference compound]",> 30,> 30,> 30,> 30 µM,more potent towards myr-Akt1 than myr-Akt2 and myr-Akt3,7.21,7.37,107,72.2,-0.31,7.33 µM and 7.9 µM and 6.25 µM,13.5 µM and 21.4 µM and 14.1 µM and 10.4 µM,> 30,99.8,-0.26,> 30 µM (2×) and 17.8 µM,-2.52,,,,"viability at 3 days, 0.0001 µM ([1]; cell viability): 107%; EC50 (Ba/F3^myr-Akt2 cells; Mus musculus, read-out: CTG BaF3myr-Akt2, Mean, mean of replicates): 14.9 µM; viability at 0.0001 µM (Ba/F3^myr-Akt2 cells; Mus musculus, read-out: cell viability, CTG, myr-Akt2, 0.1 nM, single replicates): 100%; viability at 5 µM (Ba/F3^myr-Akt2 cells; Mus musculus, read-out: cell viability, CTG, myr-Akt2, 5000 nM, single replicates): 96.1%; viability at 0.0001 µM (Ba/F3^myr-Akt3 cells; Mus musculus, read-out: cell viability, CTG, myr-Akt3, 0.1 nM, single replicates): 105%"
"C=CC(=O)Nc1ccc2[nH]c(=O)n(C3CCN(Cc4ccc(-c5[nH]c(=O)c(CC(C)C)nc5-c5ccccc5)cc4)CC3)c2c1 [16b, reference compound]",,20.1,21.6,15.9 µM and 22.9 µM,,,29.7,99,102,,29.8 µM and > 30 µM,,,,,> 30 µM and 24.5 µM and 11.4 µM,,102.9 % of control and 116.0 % of control and 91.9 % of control,99.0 % of control and 116.0 % of control,preferential binding,"viability at 3 days, 5 µM ([1]; parental Ba/F3 cells, CTG, parental, single replicates): 98%; cell viability (Ba/F3^myr-Akt1 cells; [18]): 105.6 % of control; cell viability (Ba/F3^myr-Akt1 cells; [19]): 102.7 % of control and 99.1 % of control; cell viability (Ba/F3^myr-Akt3 cells; [20]): 96.8 % of control; cell viability (Ba/F3^myr-Akt3 cells; [21]): 61.2 % of control"
"C=CC(=O)Nc1ccc2[nH]c(=O)n(C3CCN(Cc4ccc(-c5nc6cc[nH]c(=O)c6cc5-c5ccccc5)cc4)CC3)c2c1 [Borussertib, reference compound]",,,,,dose-dependent reduction of pAkt,0.44,0.341,90,,,0.491 µM and 0.488 µM,,6.16,73.8,,6.18 µM and 7.62 µM and 7.38 µM,,106.4 % of control and 91.0 % of control,102.2 % of control and 91.4 % of control,dose-dependent reduction of pAkt,"viability at 3 days, 0.0001 µM ([1]; CTG, parental, 0.1 nM, single replicates, read-out: cell viability): 98.5%; viability at 3 days, 5 µM ([1]; CTG, parental, single replicates): 108%; EC50 (parental Ba/F3 cells; Mus musculus, BaF3, read-out: CTG BaF3, Mean, parental cells, mean of replicates): 20.1 µM; EC50 (parental Ba/F3 cells; read-out: CTG BaF3, individual determinations, parental cells, single replicates): 16.8 µM and 10.9 µM and 24.4 µM; cell viability (Ba/F3^myr-Akt1 cells; [18]): 99.2 % of control and 105.4 % of control; cell viability (Ba/F3^myr-Akt1 cells; [19]): 3.1 % of control and 7.0 % of control and 4.5 % of control; cell viability (Ba/F3^myr-Akt3 cells; [20]): 96.6 % of control and 95.9 % of control; cell viability (Ba/F3^myr-Akt3 cells; [21]): 70.7 % of control and 65.0 % of control; EC50 (Ba/F3^myr-Akt3 cells; [22]): 6.84 µM"
C=CC(=O)Nc1ccc2[nH]c(=O)n(C3CCN(Cc4ccc(-c5ncc(CO)cc5-c5ccccc5)cc4)CC3)c2c1 [compound 3],> 30,> 30,> 30,> 30 µM,,28.3,26.6,,,0.13,28.3 µM,21.2 µM and 12.4 µM and > 30 µM,> 30,,-0.15,> 30 µM,-0.71,,,,"modified cysteine residues in Akt1 (MS/MS) (Akt1 [5]): Cys296 and Cys310; EC50 BaF3myr-Akt1 (Ba/F3^myr-Akt1 cells; CTG): generally inactive; EC50 BaF3myr-Akt3 (Ba/F3^myr-Akt3 cells; CTG): generally inactive; EC50 (Ba/F3^myr-Akt3 cells; [22]): > 30 µM; EC50 (Ba/F3^myr-Akt3 cells; Mus musculus, read-out: EC50 BaF3myr-Akt3, CTG): > 30 µM; IC50 (Akt1 [3]; HTRF IC50 Akt1, Mean, mean of replicates): 184 nM; IC50 (Akt1 [3]; HTRF IC50 Akt1, individual determinations, single replicates): 133 nM and 103 nM and 189 nM and 310 nM; IC50 (Akt1 [3]; IC50 Akt1, HTRF, ATP at KM, 1 h preincubation): 186 ± 79 nM; IC50 (Akt2; HTRF IC50 Akt2, Mean, mean of replicates): 961 nM; IC50 (Akt2; HTRF IC50 Akt2, individual determinations, single replicates): 1020 nM and 724 nM and 1140 nM; IC50 (Akt2; IC50 Akt2, HTRF, ATP at KM, 1 h preincubation): 961 ± 174 nM; IC50 (Akt3): > 20 µM"
